Results as given in ChEMBL document CHEMBL5154749 (Eur J Med Chem, 2022).
Activity calls are given as the source filed them. The calls are words filed in the database; no cut-off is given here.

Assays:
LoVo [1] = experiment: Antitumor activity against human LoVo cells xenografted in NOD/SCID mouse assessed as tumor growth inhibition at 100 mg/kg, po BID for 30 days measured every 2 to 3 days; assay type: functional; settings: 720 h, time 30 day, read-out: TGI
HT-29 [2] = experiment: Induction of DNA damage in human HT-29 cells proficient in ATM at 1 uM measured after 3 days in presence of AZD1390 by immunofluorescence assay; assay type: functional, cell-based; settings: time 3.0 day
[3] = target: T1, Serine/threonine-protein kinase ATR (Homo sapiens, UniProt Q13535); experiment: Inhibition of ATR signalling in ATM-deficient human LoVo cells assessed as change in expression of Chk1 at up to 3 uM incubated for 1 hr followed by hydroxyurea addition measured after 4 hrs by Western blot analysis; assay type: cell-based; settings: time 5.0 hrs
[4] = Tmax in Sprague-Dawley rat at 5 mg/kg, iv measured at 0.083 to 24 hrs by LC-MS/MS method; assay type: ADME, organism-based; settings: in vivo, time 0.083-24 hrs
[5] = Half life in Sprague-Dawley rat at 10 mg/kg, po measured at 0.083 to 24 hrs by LC-MS/MS method; assay type: ADME, organism-based; settings: in vivo, time 0.083-24 hrs
HT-29 [6] = experiment: Induction of apoptosis in human HT-29 cells assessed as viable cells at 3 uM measured after 48 hrs in presence of AZD1390 by Annexin V-FITC/Propidium iodide staining based flow cytometry analysis (reference value: 95.33%); assay type: functional; settings: read-out: Activity
LoVo [7] = experiment: Induction of DNA damage in human LoVo cells deficient in ATM at 1 uM measured after 3 days by immunofluorescence assay; assay type: functional, cell-based; settings: time 3.0 day
LoVo [8] = experiment: Induction of apoptosis in human LoVo cells deficient in ATM assessed as viable cells at 3 uM measured after 24 hrs by Annexin V-FITC/Propidium iodide staining based flow cytometry analysis (reference value: 91.64%); assay type: functional; settings: read-out: Activity
LoVo [9] = experiment: Induction of apoptosis in human LoVo cells deficient in ATM assessed as late apoptotic cells at 1 uM measured after 24 hrs by Annexin V-FITC/Propidium iodide staining based flow cytometry analysis (reference value: 3.32%); assay type: functional
HCT-116 = experiment: Antiproliferative activity against ATM proficient human HCT-116 cells assessed as reduction in cell viability incubated for 72 hrs by MTT assay; assay type: functional, cell-based; settings: dose 0.001-100 µM, DDE = dose-dependent effect
LoVo [10] = experiment: Induction of apoptosis in human LoVo cells deficient in ATM assessed as early apoptotic cells at 1 uM measured after 24 hrs by Annexin V-FITC/Propidium iodide staining based flow cytometry analysis (reference value: 4.20%); assay type: functional
NCI-H23 = experiment: Antiproliferative activity against ATM-deficient human NCI-H23 cells assessed as reduction in cell viability incubated for 72 hrs by MTT assay; assay type: functional, cell-based; settings: dose 0.001-100 µM, DDE = dose-dependent effect
HT-29 [11] = experiment: Induction of apoptosis in human HT-29 cells assessed as necrotic cells at 3 uM measured after 48 hrs in presence of AZD1390 by Annexin V-FITC/Propidium iodide staining based flow cytometry analysis (reference value: 0.23%); assay type: functional
HT-29 [12] = experiment: Induction of apoptosis in human HT-29 cells assessed as early apoptotic cells at 3 uM measured after 48 hrs in presence of AZD1390 by Annexin V-FITC/Propidium iodide staining based flow cytometry analysis (reference value: 3.81%); assay type: functional
LoVo [13] = experiment: Induction of apoptosis in human LoVo cells deficient in ATM assessed as viable cells at 0.3 uM measured after 24 hrs by Annexin V-FITC/Propidium iodide staining based flow cytometry analysis (reference value: 91.64%); assay type: functional; settings: read-out: Activity
LoVo [14] = experiment: Induction of apoptosis in human LoVo cells deficient in ATM assessed as late apoptotic cells at 0.3 uM measured after 24 hrs by Annexin V-FITC/Propidium iodide staining based flow cytometry analysis (reference value: 3.32%); assay type: functional
LoVo [15] = experiment: In vivo induction of DNA damage in human LoVo cells xenografted in NOD/SCID mouse assessed as increase in gamma H2AX level administered orally twice a day for 30 days by immuno histochemical analysis; assay type: functional, organism-based; settings: dose 50-100 mg/kg, route po, time 30.0 day, DDE = dose-dependent effect
[16] = target: T1, Serine/threonine-protein kinase ATR; experiment: Inhibition of ATR signalling in ATM-deficient human LoVo cells assessed as change in expression of ATR at up to 3 uM incubated for 1 hr followed by hydroxyurea addition measured after 4 hrs by Western blot analysis; assay type: cell-based; settings: time 5.0 hrs
HT-29 [17] = experiment: Cytotoxicity against ATM proficient human HT-29 cells assessed as reduction in cell viability incubated for 72 hrs by MTT assay; assay type: functional, cell-based; settings: dose 0.001-100 µM, DDE = dose-dependent effect
[18] = target: T1, Serine/threonine-protein kinase ATR; experiment: In vivo inhibition of ATR in human LoVo cells xenografted in NOD/SCID mouse assessed as inhibition of ATR phosphorylation at 50 to 100 mg/kg, po administered twice a day for 30 days by Western blot analysis; settings: dose 50-100 mg/kg, time 30.0 day
HT-29 [19] = experiment: Induction of apoptosis in human HT-29 cells assessed as early apoptotic cells at 0.3 uM measured after 48 hrs in presence of AZD1390 by Annexin V-FITC/Propidium iodide staining based flow cytometry analysis (reference value: 3.81%); assay type: functional
Granta-519 = experiment: Antiproliferative activity against ATM-deficient human Granta-519 cells assessed as reduction in cell viability incubated for 72 hrs by MTT assay; assay type: functional, cell-based; settings: dose 0.001-100 µM, DDE = dose-dependent effect
[20] = target: Serine/threonine-protein kinase B-raf (Homo sapiens, UniProt P15056); experiment: Inhibition of human recombinant B-raf (416 to end residue) using myelin-Bas as substrate incubated for 40 mins in presence of ATP by scintillation counting method
[21] = AUC (0 to infinity) in Sprague-Dawley rat at 10 mg/kg, po measured at 0.083 to 24 hrs by LC-MS/MS method; assay type: ADME, organism-based; parameters: time lower 0.083 hrs, dose 10 mg/kg, time upper 24 hrs, route po; settings: in vivo
HT-29 [22] = experiment: Induction of apoptosis in human HT-29 cells assessed as necrotic cells at 0.3 uM measured after 48 hrs by Annexin V-FITC/Propidium iodide staining based flow cytometry analysis (reference value: 0.73%); assay type: functional
[23] = Toxicity in NOD/SCID mouse xenografted with human LoVo cells assessed as damage in heart at 50 to 100 mg/kg, po administered bid for 30 days measured after 2 hrs post last dose by H and E staining method; assay type: organism-based; settings: in vivo, 720 h, dose 50-100 mg/kg, time 30 day
HT-29 [24] = experiment: Induction of apoptosis in human HT-29 cells assessed as late apoptotic cells at 1 uM measured after 48 hrs by Annexin V-FITC/Propidium iodide staining based flow cytometry analysis (reference value: 0.71%); assay type: functional
HT-29 [25] = experiment: Induction of apoptosis in human HT-29 cells assessed as early apoptotic cells at 1 uM measured after 48 hrs by Annexin V-FITC/Propidium iodide staining based flow cytometry analysis (reference value: 1.55%); assay type: functional
MCF7 = experiment: Antiproliferative activity against ATM proficient human MCF7 cells assessed as reduction in cell viability incubated for 72 hrs by MTT assay; assay type: functional, cell-based; settings: dose 0.001-100 µM, DDE = dose-dependent effect
[26] = Clearance in Sprague-Dawley in rat at 5 mg/kg, iv measured at 0.083 to 24 hrs by LC-MS/MS method; assay type: ADME, organism-based; settings: in vivo, time 0.083-24 hrs

T1 sequence (Q13535 whole entry, looked up): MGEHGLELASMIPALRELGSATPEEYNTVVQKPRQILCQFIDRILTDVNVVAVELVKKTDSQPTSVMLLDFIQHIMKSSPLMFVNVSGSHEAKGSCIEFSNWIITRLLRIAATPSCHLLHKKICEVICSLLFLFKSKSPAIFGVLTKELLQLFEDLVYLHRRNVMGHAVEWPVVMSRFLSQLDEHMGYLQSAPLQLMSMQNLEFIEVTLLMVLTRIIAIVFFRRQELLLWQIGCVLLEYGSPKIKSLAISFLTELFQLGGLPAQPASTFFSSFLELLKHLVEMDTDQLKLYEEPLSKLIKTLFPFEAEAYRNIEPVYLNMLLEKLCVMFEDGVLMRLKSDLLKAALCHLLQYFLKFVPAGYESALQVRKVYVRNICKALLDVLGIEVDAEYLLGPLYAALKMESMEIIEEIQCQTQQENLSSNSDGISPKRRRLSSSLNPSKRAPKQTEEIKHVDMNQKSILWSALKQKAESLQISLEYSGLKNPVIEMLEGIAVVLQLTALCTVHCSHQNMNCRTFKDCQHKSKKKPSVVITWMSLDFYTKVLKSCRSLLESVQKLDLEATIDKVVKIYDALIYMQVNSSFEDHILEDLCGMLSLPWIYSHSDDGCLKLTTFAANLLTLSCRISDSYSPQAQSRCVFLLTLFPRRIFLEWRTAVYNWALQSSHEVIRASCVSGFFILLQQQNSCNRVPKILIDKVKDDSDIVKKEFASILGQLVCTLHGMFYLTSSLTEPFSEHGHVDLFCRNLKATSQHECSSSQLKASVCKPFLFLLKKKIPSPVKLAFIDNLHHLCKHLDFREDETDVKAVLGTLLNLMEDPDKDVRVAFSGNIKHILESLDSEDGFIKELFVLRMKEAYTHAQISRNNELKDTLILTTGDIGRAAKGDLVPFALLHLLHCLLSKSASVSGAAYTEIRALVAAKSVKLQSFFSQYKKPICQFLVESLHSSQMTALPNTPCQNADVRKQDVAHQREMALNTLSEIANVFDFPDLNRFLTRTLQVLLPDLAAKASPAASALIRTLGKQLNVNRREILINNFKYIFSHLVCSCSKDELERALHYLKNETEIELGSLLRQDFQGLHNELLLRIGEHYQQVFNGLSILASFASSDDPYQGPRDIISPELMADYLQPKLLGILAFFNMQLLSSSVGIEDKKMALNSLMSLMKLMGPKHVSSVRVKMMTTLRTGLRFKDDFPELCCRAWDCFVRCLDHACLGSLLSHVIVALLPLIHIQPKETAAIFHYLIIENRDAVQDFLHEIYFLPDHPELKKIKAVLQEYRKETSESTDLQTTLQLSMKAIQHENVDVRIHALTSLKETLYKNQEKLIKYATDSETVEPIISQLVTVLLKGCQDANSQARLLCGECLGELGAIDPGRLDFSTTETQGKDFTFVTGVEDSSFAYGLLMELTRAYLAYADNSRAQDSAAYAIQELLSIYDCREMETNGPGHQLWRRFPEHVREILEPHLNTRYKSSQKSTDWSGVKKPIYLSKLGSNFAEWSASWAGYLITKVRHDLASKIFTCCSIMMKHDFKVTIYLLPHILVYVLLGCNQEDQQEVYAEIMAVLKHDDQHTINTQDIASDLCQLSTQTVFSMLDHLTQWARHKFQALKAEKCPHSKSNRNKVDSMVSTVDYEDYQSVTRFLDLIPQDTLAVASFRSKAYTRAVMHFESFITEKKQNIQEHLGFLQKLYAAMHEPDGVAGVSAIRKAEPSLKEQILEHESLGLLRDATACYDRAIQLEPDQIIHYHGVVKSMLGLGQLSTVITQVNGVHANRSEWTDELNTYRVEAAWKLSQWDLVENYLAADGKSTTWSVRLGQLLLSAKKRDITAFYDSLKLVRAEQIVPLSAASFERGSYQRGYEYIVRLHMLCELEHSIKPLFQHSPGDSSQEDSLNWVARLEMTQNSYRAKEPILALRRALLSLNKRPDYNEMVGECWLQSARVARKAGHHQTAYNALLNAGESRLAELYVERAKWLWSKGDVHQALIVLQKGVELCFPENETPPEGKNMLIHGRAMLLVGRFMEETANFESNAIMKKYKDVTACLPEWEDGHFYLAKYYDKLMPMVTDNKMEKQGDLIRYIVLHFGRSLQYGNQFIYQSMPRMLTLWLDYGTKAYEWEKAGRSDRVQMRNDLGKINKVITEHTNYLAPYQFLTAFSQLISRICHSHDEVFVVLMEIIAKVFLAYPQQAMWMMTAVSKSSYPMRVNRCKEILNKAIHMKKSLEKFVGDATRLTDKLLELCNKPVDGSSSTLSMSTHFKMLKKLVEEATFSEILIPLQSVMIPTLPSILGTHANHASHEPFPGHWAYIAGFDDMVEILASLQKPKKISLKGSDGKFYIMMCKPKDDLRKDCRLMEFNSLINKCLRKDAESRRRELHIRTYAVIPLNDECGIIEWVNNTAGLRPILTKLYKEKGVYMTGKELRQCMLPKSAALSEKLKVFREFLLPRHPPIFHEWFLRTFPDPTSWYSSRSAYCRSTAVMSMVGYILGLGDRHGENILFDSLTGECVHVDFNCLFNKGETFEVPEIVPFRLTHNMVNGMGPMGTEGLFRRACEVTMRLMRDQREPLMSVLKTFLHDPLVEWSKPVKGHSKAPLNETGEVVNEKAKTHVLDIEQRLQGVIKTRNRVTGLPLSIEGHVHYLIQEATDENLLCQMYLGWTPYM
Serine/threonine-protein kinase B-raf, sequence (P15056 whole entry): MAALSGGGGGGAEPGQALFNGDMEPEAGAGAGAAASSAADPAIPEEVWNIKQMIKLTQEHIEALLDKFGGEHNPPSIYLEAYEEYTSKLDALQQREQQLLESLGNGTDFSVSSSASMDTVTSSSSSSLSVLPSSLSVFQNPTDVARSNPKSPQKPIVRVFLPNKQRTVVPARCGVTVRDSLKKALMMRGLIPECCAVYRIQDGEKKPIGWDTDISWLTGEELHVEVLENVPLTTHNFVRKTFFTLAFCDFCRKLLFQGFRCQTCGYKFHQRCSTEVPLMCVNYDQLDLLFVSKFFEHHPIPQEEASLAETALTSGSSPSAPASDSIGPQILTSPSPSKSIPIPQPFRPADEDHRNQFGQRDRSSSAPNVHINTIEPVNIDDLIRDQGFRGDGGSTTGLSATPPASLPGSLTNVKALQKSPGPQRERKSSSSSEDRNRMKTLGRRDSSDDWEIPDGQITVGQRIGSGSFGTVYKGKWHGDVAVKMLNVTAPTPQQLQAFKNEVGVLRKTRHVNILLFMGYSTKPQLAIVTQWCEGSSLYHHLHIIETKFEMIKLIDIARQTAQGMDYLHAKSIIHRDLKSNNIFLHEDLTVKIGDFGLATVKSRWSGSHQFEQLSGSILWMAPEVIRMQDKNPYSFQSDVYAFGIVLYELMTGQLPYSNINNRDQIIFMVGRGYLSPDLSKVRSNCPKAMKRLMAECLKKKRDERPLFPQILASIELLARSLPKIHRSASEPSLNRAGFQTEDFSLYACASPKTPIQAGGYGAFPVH

inhibition [3]: Active
Tmax [4]: 4.8 min
half-life [5]: 68.4 min
inhibition [16]: Active
Activity [18]: Active
IC50 [20]: 1770 nM
AUC(0-inf) [21]: 2720 ng·h/mL
clearance [26]: 26.5 mL/min/kg
Structure (SMILES): C[C@@H]1COCCN1c1nc(-c2cccc3[nH]ccc23)nc2ccc(-c3ccnn3C)cc12
inhibition in vivo at 100 mg/kg (LoVo [1]): 72.8%
Activity (HT-29 [2]): Active
viability at 3 µM (HT-29 [6]): 58%
Activity (LoVo [7]): Active
viability at 3 µM (LoVo [8]): 41.2%
Activity (LoVo [9]): 20.93%
Activity (HCT-116): Dde
Activity (LoVo [10]): 28.91%
Activity (NCI-H23): Dde
Activity (HT-29 [11]): 5.39%
Activity (HT-29 [12]): 15.88%
viability at 0.3 µM (LoVo [13]): 55.9%
Activity (LoVo [14]): 17.38%
Activity (LoVo [15]): Dde
Activity (HT-29 [17]): Dde
Activity (HT-29 [19]): 7.23%
Activity (Granta-519): Dde
Activity (HT-29 [22]): 1.65%
Activity [23]: Non-Toxic
Activity (HT-29 [24]): 1.92%
Activity (HT-29 [25]): 2.32%
Activity (MCF7): Dde
